Legend:
JNK3 = biological target: T1, JNK3 (Homo sapiens, UniProt P53779); experiment: radiometric in vitro kinase assay (Eurofins KinaseProfiler); assay type: biochemical
T1 construct: gene MAPK10

Aurora-A = biological target: T2, Aurora-A (Homo sapiens, UniProt O14965); experiment: as above; assay type: biochemical
T2 construct: gene AURKA
T2 sequence (O14965 1-403): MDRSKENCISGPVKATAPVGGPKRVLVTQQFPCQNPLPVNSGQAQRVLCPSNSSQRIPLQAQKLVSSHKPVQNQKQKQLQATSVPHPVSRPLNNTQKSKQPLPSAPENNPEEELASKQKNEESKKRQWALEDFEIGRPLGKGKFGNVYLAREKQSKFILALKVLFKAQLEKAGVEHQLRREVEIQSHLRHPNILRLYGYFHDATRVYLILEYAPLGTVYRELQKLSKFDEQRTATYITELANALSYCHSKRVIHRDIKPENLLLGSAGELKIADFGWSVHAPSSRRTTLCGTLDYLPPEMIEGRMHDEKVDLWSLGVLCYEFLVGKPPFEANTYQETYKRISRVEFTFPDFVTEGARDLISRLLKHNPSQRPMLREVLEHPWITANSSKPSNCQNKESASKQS

CHK2 = biological target: T3, CHK2 (Homo sapiens, UniProt O96017); experiment: radiometric in vitro kinase assay (Eurofins KinaseProfiler); also CETSA in MCF-7 cells; assay type: biochemical
T3 construct: gene CHEK2

Aurora-B = biological target: T4, Aurora-B (Homo sapiens, UniProt Q96GD4); experiment: radiometric in vitro kinase assay (Eurofins KinaseProfiler); assay type: biochemical
T4 construct: gene AURKB

AKT1/PKBα = AKT1/PKBα (Homo sapiens, UniProt P31749); experiment: as above; assay type: biochemical
[1] = biological target: POLE (catalytic subunit of DNA polymerase ε) (Homo sapiens, UniProt Q07864); experiment: CETSA in MCF-7 cells ([…] BKC), western blot; assay type: cell-based
[2] = biological target: T5, POLD1 (catalytic subunit of DNA polymerase δ) (Homo sapiens, UniProt P28340); experiment: CETSA in MCF-7 cells ([…] BKC), western blot; assay type: cell-based
T5 sequence (P28340 1-1107): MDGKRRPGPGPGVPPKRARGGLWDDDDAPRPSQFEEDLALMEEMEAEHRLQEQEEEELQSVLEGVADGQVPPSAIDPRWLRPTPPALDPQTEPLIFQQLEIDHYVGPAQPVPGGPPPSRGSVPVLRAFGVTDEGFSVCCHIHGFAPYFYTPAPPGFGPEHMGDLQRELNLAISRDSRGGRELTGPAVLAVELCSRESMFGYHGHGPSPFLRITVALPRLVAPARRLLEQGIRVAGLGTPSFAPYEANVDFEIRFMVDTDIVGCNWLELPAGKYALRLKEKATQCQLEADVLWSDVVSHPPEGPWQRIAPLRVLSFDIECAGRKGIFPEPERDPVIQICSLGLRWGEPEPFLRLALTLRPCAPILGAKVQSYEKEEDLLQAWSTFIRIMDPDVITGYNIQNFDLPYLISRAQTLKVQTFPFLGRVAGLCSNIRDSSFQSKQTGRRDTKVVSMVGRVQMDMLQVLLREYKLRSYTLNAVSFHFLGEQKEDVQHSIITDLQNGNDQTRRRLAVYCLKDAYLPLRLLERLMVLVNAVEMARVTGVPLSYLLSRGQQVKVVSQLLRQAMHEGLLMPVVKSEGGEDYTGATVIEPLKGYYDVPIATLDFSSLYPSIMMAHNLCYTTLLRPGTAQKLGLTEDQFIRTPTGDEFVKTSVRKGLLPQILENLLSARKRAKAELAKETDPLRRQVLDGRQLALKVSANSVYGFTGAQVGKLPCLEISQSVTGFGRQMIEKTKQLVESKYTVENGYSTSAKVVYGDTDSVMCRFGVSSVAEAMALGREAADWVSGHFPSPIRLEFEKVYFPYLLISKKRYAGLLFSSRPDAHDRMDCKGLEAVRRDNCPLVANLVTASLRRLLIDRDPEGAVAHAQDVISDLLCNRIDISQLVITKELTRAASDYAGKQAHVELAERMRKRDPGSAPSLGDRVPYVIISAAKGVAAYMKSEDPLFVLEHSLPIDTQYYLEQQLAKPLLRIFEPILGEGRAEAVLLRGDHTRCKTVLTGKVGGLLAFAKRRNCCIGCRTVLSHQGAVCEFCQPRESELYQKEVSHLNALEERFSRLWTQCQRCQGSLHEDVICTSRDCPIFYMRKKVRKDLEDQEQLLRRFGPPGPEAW

[3] = biological target: T6, POLD1 (p125, catalytic subunit of Polδ) (Xenopus laevis, UniProt Q642R8); experiment: CETSA in Xenopus egg extracts ([…] BKC), western blot; assay type: cell-free
T6 construct: gene pold1.L
T6 sequence (Q642R8 1-1109): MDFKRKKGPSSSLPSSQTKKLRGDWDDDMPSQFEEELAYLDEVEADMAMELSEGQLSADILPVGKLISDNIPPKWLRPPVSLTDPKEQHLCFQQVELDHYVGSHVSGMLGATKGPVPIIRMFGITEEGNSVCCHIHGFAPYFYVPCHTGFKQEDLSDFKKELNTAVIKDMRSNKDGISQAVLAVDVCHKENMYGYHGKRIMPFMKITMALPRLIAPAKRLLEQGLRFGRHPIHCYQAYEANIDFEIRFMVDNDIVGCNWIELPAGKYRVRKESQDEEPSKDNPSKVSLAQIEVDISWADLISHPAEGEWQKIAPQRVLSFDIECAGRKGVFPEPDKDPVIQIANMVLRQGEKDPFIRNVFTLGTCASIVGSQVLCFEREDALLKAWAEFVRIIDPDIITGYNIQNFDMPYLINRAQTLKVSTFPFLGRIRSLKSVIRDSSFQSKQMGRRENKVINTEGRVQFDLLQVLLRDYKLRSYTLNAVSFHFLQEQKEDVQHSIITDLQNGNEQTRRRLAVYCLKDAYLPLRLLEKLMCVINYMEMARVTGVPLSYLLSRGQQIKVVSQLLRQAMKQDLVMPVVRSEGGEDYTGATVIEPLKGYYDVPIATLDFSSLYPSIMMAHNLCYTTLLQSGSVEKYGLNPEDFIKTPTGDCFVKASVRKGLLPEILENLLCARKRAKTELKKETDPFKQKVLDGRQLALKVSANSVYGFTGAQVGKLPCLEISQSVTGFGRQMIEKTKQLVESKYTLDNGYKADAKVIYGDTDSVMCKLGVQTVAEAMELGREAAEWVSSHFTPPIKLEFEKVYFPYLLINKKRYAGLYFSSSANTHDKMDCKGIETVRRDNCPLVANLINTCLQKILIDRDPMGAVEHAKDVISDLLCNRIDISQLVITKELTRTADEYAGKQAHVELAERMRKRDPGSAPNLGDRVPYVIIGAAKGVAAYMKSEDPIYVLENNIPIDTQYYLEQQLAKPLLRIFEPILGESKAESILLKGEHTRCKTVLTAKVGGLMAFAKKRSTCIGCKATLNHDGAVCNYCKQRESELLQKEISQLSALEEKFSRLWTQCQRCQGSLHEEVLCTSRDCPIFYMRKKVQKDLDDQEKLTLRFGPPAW

Sequence of POLE (catalytic subunit of DNA polymerase ε) (Q07864 whole entry): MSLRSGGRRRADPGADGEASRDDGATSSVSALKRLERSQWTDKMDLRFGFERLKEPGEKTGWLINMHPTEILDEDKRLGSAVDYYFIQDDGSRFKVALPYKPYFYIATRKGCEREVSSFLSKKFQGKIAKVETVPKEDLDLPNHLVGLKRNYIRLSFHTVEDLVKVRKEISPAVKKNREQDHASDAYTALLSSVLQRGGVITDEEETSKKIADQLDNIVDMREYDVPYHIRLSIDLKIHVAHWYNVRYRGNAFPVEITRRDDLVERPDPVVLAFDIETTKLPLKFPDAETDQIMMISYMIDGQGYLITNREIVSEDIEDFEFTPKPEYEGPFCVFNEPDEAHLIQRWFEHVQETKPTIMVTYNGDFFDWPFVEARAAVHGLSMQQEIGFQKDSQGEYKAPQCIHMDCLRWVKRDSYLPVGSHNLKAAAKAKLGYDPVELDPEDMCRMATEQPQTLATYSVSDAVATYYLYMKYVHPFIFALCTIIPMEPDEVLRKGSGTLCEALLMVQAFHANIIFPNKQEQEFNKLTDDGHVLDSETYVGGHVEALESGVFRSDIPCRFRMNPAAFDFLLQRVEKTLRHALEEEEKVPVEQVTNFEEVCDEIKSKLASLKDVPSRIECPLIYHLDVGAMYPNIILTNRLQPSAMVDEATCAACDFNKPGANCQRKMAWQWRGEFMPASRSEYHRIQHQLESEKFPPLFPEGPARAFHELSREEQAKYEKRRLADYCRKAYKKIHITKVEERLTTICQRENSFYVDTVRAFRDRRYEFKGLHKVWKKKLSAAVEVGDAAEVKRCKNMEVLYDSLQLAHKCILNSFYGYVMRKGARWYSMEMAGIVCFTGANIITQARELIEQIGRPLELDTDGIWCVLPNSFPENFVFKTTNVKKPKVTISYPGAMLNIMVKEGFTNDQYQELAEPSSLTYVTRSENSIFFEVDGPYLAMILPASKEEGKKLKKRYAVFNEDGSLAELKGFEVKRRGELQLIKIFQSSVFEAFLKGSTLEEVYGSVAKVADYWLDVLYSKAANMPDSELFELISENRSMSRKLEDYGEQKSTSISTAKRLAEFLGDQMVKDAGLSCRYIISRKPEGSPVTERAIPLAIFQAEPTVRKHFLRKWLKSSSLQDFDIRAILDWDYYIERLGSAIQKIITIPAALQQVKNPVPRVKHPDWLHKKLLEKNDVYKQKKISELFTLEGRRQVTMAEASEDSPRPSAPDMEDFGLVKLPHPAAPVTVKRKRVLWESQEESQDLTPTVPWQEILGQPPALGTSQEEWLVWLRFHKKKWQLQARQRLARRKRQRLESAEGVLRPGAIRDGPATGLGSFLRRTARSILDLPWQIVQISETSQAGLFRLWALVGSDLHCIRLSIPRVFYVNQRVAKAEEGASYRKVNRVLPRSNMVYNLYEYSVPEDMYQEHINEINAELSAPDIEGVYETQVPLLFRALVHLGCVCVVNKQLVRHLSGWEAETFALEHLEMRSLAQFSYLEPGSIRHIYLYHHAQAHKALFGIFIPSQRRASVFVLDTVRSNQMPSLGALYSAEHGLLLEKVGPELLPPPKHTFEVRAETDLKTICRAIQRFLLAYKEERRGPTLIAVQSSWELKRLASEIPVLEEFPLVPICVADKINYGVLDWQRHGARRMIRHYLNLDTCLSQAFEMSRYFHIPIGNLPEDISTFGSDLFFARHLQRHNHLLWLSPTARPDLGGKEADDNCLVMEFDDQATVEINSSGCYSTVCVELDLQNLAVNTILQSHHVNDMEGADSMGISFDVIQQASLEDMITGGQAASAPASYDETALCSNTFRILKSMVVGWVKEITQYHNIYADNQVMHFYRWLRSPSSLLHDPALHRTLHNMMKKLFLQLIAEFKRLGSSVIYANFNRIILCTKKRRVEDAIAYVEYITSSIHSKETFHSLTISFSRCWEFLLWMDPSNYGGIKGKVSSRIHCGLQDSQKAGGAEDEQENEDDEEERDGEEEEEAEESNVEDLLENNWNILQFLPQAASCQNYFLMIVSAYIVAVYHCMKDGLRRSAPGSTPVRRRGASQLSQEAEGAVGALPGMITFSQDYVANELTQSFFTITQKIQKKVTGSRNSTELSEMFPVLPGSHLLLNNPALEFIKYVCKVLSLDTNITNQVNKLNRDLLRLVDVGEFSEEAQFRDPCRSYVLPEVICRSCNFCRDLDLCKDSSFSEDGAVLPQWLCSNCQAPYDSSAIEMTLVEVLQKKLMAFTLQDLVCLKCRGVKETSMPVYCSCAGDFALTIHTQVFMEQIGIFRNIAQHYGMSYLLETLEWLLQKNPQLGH
Sequence of AKT1/PKBα (P31749 whole entry): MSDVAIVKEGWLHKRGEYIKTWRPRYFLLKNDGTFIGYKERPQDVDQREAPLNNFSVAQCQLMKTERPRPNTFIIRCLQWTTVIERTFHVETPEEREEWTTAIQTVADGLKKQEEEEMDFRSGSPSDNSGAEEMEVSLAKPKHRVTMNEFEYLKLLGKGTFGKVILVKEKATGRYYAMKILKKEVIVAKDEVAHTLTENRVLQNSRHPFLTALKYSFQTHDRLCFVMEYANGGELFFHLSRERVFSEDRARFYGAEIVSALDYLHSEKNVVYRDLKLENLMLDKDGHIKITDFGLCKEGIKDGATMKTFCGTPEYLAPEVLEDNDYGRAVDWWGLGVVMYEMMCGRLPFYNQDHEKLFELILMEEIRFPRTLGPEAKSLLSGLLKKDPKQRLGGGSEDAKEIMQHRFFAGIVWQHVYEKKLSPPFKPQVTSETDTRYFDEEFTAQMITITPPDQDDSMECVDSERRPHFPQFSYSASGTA
T1 sequence (P53779 whole entry): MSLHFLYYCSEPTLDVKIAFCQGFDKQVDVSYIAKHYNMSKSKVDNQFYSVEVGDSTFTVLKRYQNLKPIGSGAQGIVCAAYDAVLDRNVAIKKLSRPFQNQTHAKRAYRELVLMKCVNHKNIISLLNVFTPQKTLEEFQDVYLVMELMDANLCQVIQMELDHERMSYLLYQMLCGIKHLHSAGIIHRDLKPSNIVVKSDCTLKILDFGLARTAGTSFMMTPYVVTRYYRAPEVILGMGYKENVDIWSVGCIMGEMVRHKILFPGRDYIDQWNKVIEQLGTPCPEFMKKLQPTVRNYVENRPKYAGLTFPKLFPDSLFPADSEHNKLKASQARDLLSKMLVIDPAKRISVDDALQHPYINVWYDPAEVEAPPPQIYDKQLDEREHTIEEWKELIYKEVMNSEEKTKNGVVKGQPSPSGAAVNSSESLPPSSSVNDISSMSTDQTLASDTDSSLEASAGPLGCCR
T4 sequence (Q96GD4 whole entry): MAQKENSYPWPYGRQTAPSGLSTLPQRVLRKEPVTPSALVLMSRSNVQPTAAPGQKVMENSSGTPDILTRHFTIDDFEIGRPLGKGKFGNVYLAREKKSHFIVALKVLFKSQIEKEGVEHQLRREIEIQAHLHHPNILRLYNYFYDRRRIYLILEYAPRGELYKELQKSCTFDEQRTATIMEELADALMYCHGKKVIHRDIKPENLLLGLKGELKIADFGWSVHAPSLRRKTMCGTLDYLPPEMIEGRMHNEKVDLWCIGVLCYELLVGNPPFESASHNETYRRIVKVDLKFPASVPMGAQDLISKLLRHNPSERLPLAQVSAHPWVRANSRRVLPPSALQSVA
T3 sequence (O96017 whole entry): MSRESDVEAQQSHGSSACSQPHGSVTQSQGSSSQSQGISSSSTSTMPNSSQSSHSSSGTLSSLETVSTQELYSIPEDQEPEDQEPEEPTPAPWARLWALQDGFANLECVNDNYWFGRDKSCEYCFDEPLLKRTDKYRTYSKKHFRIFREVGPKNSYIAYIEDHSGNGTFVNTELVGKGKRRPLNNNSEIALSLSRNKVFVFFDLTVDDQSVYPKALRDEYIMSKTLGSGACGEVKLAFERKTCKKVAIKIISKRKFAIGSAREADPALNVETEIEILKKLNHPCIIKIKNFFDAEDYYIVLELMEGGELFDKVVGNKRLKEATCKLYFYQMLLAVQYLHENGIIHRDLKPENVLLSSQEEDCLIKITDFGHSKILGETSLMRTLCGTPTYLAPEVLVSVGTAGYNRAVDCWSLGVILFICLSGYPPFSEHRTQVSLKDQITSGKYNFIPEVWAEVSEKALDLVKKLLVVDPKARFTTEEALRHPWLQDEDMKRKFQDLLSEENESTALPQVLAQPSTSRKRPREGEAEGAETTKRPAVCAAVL

SMILES	IC50 (JNK3)	IC50 (Aurora-A)	IC50 (CHK2)	IC50 (Aurora-B)	IC50 (AKT1/PKBα)	CETSA in MCF-7 cells (40 μM BKC), western blot [1]	CETSA in MCF-7 cells (40 μM BKC), western blot [2]	CETSA in Xenopus egg extracts (40 μM BKC), western blot [3]
CC(C)=CCc1c(O)ccc(C(=O)/C=C/c2ccc(O)cc2)c1O [IBC, Isobavachalcone]	16.4 µM	11.2 µM	3.5 µM	11.2 µM	56.7 µM	–	–	–
C=C[C@@](C)(/C=C/c1ccc(O)cc1)CCC=C(C)C [BKC, Bakuchiol]	–	–	–	–	–	BKC interacts with the catalytic subunits of Polδ and Polε in MCF-7 cells	BKC interacts with the catalytic subunits of Polδ and Polε in MCF-7 cells	BKC specifically stabilize the catalytic subunit POLD1 of Polδ, but not that of the accessory subunit POLD3 in Xenopus
